Source: patent publication US20200087258A1, “INHIBITOR OF CITRATE TRANSPORTER AND THEIR USE IN THERAPY” (Eternygen GmbH, priority 2017, published 2020)

Key:
GLT-1 = target: T1, GLT-1 (Homo sapiens, UniProt P43004); assay: 3H-glutamate uptake counter assay in HEK293 cells overexpressing human GLT-1; assay type: cell-based
T1 construct: host or cells: HEK293 (virus made in GP293 packaging cells)
Experimental: The compound was obtained by screening of a library containing more than 50,000 lead-like compounds and fragments. The library was tested using a functional citrate uptake assay with HEK293 cells overexpressing recombinant human INDY. The following hit confirmation was conducted in the same assay system. To confirm the activity of selected compounds on the target INDY another cell assay was conducted. In this assay system citrate uptake was measured using HepG2 cells which endogenously express INDY. Furthermore selectivity of selected compounds was tested for two other transporters in different assay systems. The first transporter was the glutamate transporter GLT-1 tested in a glutamate uptake assays using HEK293 cells overexpressing recombinant human GLT-1. The second transporter was the glucose transporter GLUT1 tested in a glucose uptake assay using Huh-7 cells which endogenously express GLUT1. Compounds were considered to be selective with an at least 5-fold higher activity for INDY than for the other two transporters.
Cells were maintained in cell medium using cell culture grade flasks (CellSTACK Corning, 500 cm2 dishes or T175 depending on cell number). The selection antibiotic and G418 (800 μg/ml) was added during cultivation but not for seeding into assay plates. For splitting, cells were washed with PBS (w/o Ca2+, Mg2+, phenol red) and detached with Trypsin/EDTA. Throughout cultivation cells were kept sub-confluent. Detached cells (50,000 cells/well) were seeded in 96-well plates (white, clear bottom from Corning #655098) and incubated over night before usage in the assay. The following media were used. For HEK293 cells expressing INDY MEM (PAA)+10% FCS+1×P/S+2 mM L-Gln; for HEK293 cells expressing GLT-1 DMEM (Gibco)+10% FCS+400 µg/ml G418; for Huh7 cells DMEM (Gibco)+10% FCS+2 mM L-Gin (+1×P/S); for HepG2 cells MEM (PAA, Cat # E15-024)+10% FCS+2 mM L-Gin+1×NEAA+1 mM Na-Pyruvat
The following assay buffers for the particular uptake reaction were used. Citrate uptake buffer: 120 mM NaCl, 5.4 mM KCl, 0.8 mM MgSO4, 5 mM glucose, 1.8 mM CaCl2, 25 mM Hepes, 25 mM MES, pH 6.5. Glutamate uptake buffer: HBSS, 1 mM CaCl2, 1 mM MgCl2, 20 mM Hepes pH 7.4. Glucose uptake buffer: 25 mM Hepes+25 mM MES pH 7.4, 120 mM NaCl, 5.4 mM KCl, 1.8 mM CaCl2, 0.8 mM MgSO4.
As a counter assay, Glutamate uptake by the GLT-1 transporter was used. The principle of the assay is to measure the uptake of ^3H labelled glutamate into HEK cells, which overexpress human GLT-1.
The generation of a GLT-1 cell line was performed as follows: human GLT11 isoform sv1 cDNA (Origene # RC223924) was cloned into vector pFB-Neo-CMV-hGLT1 using QIAfilter Plasmid Midi Kit (Qiagen). Virus was generated in GP293 packaging cells (transfection of plasmid with Lipofectamine 2000+OptiMEM). For transfection into HEK cells GP293, supernatant containing virus was passed through a 0.45 micron sterile filter and DEAE-dextran was added at […] final concentration. The solution was used to transfect HEK293 cells at 37° C., 8.5% CO2. After 24 h selection marker G418 at 400 μg/ml was added and cultivation medium performed in DMEM 10% FBS.
The assay was performed in a 96-well format using repeated washing steps, cell lysis and addition of scintillation fluid. Assay buffer was HBSS, 1 mM CaCl2, 1 mM MgCl2, […] pH 7.4. Cells were seeded into white clear-bottom 96-well plates (50,000/well) in the presence of Poly-D-Lysine and incubated at 37° C. for 16-24 hours. Subsequently the plates were washed once with assay buffer using automated washing/LS 405 Selectors, BioTek ending with a buffer volume of 40 μl. Then 5 μl of compound solution in assay buffer was added and incubated for 20 min at 37° C. in cell incubator, HERA cell Heraeus. Afterwards 10 μl of substrate 3H-Glu (3 nM) were added and incubated for another 20 min at 37° C. in cell incubator, HERAcell. Then the plates were washed once with 200 μl cold assay buffer and 150 μl scintillation fluid was added. […]

INDY = INDY (Homo sapiens, UniProt Q86YT5); assay: Fatty acid synthesis (FAS) assay from 14C-citrate in HepG2 cells; assay type: cell-based; details: 14C-citrate into fatty acids
Experimental: To test the functional activity of selected compounds and to bridge between the in vitro assay for citrate uptake to the physiological relevant lipid accumulation in liver cells a further functional cell assay was performed. This assay measured the effect of selected compounds on the citrate mediated fatty acid synthesis in hepatocytes.
Fatty acid synthesis (FAS) assay in HepG2: The principle of the assay is to measure the generation of ^14C-labelled fatty acids after uptake of ^14C labelled citrate into HepG2 cells. HepG2 cells were seeded into white clear-bottom 96-well plates (50,000/well) coated with collagen and incubated at 37° C. for 16-24 hours. After that plates were washed once with 100 μl PBS (+CaCl2+MgCl2) and 40 μl assay medium ([…] containing 11 mM glucose, 10 mM HEPES and 1 nM Insulin) per well was added. Test substances in assay medium were added ([…], 0.5% DMSO) and incubated for 20 min. After that 10 μl assay medium containing ^14C-citrate (final concentration 50 nM) and PrestoBlue reagent (1× final concentration; Life Technologies) were added and incubated for 60 min (37° C., 5% CO2). Cell viability was measured (Safire microplate reader, ex: 560/em: 590) and plates were incubated for another 30 min. Medium was removed by inverting the plate and cells were washed once with 100 μl ice-cold PBS. Cells were lysed with 50 μl lysis buffer (100 mM NaOH, 0.1% Triton X-100) and plate was sealed with Tape Pads and vortexed. For the saponification reaction plates were incubated for 16-24 hours at 80° C. Seals were removed and 200 μl […] was added for neutralisation of the pH. 150 μl from each well was transferred into the corresponding wells of a 96-well CytoStarT plate (Perkin Elmer) and sealed with TopSeal A (Perkin Elmer). Plates were incubated for 4 h at 70° C. and for 1 h at room temperature in the dark. Signal of ^14C radioactivity was measured (TopCount NXT scintillation counter, 1 min/well). As a positive control 5 mM citrate or 40 μM C75 (Sigma, C5490) was applied.

T1 sequence (P43004 whole entry): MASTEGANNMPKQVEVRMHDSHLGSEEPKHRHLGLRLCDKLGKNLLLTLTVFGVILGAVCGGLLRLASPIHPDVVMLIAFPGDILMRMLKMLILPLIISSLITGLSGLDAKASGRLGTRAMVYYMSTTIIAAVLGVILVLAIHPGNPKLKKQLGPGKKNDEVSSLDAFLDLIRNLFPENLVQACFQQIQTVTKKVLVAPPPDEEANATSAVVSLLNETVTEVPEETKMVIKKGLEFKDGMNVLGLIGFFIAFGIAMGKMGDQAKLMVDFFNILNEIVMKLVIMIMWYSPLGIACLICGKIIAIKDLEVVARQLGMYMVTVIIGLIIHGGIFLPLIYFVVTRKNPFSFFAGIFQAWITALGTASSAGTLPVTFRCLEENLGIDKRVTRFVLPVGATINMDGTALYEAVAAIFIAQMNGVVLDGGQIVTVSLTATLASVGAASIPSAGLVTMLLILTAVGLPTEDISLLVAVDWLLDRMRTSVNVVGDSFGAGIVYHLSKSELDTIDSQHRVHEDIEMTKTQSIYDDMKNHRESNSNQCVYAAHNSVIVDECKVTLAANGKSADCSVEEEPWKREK
Sequence of INDY (Q86YT5 whole entry): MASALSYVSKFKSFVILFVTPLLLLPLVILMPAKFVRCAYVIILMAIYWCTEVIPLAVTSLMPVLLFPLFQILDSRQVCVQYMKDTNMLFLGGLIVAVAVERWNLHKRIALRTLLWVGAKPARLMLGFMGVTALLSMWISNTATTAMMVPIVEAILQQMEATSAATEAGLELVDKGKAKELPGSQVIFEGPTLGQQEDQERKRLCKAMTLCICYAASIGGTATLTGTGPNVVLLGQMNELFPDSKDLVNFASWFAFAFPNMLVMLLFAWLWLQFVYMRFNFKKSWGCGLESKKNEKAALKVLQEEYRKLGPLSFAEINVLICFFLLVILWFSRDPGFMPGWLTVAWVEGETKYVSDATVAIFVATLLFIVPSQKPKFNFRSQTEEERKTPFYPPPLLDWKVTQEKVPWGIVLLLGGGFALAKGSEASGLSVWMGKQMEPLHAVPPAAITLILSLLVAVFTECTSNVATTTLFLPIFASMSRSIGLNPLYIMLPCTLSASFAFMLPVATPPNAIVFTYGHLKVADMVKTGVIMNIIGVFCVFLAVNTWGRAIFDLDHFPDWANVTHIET

| SMILES | IC50 (GLT-1) | IC50 (INDY) |
| --- | --- | --- |
| O=C(NCc1ccccc1F)C1CCN(S(=O)(=O)c2cc(Cl)cc(Cl)c2)CC1 [Example 44, 1-(3,5-dichlorobenzenesulfonyl)-N-[(2-fluorophenyl)methyl]piperidine-4-carboxamide] | > 20 µM | 0.03 µM |
| O=C(NCc1ccccc1F)C1CCN(S(=O)(=O)/C=C/c2ccccc2)CC1 [Example 5] | > 50 µM | 1.3 µM |
| O=C(NCc1ccccn1)C1CCN(S(=O)(=O)c2ccc(C(F)(F)F)cc2)CC1 [Example 57, N-[(pyridin-2-yl)methyl]-1-[4-(trifluoromethyl)benzenesulfonyl]piperidine-4-carboxamide] | > 20 µM | 2.5 µM |
| O=C(NCc1ccccc1CO)C1CCN(S(=O)(=O)c2cc(Cl)cc(Cl)c2)CC1 [Example 87, 1-(3,5-dichlorobenzenesulfonyl)-N-{[2-(hydroxymethyl)phenyl]methyl}piperidine-4-carboxamide] | > 20 µM | 0.6 µM |
| O=C(NCc1ccccn1)C1CCN(S(=O)(=O)c2cc(Cl)cc(C3CC3)c2)CC1 [Example 101, 1-(3-chloro-5-cyclopropylbenzenesulfonyl)-N-[(pyridin-2-yl)methyl]piperidine-4-carboxamide] | > 20 µM | 0.2 µM |
| O=C(NCc1ccccn1)C1CCN(S(=O)(=O)c2ccc(S(F)(F)(F)(F)F)cc2)CC1 [Example 86, 1-[4-(pentafluoro-lambda6-sulfanyl)benzenesulfonyl]-N-[(pyridin-2-yl)methyl]pipendine-4-carboxamide] | > 20 µM | 0.4 µM |
| O=C(NCc1ccccn1)C1CCN(S(=O)(=O)c2cc(Cl)cc(Cl)c2)CC1 [Example 55, 1-(3,5-dichlorobenzenesulfonyl)-N-[(pyridin-2-yl)methyl]piperidine-4-carboxamide] | > 20 µM | 0.6 µM |

The next lines start with the values.

| IC50 (GLT-1) | IC50 (INDY) | SMILES |
| --- | --- | --- |
| > 20 µM | 0.4 µM | O=C(NCc1ccccc1F)C1CCN(S(=O)(=O)c2ccc(C(F)(F)F)cc2)CC1 [Example 25, N-[(2-fluorophenyl)methyl]-1-[4-(trifluoromethyl)benzenesulfonyl]piperidine-4-carboxamide] |
| > 20 µM | 0.6 µM | CC(C)(C)c1ccc(S(=O)(=O)N2CCC(C(=O)NCc3ccccc3F)CC2)cc1 [Example 12, 1-(4-tert-butylbenzenesulfonyl)-N-[(2-fluorophenyl)methyl]piperidine-4-carboxamide] |
| > 20 µM | 6.2 µM | COc1ccccc1CNC(=O)C1CN(S(=O)(=O)c2ccc(C(C)(C)C)cc2)C1 [Example 50, 1-(4-tert-butylbenzenesulfonyl)-N-[(2-methoxyphenyl)methyl]azetidine-3-carboxamide] |
